“Also recorded” adds a separate entry of the source.
What was measured:
HO-1 mRNA [1] = assay: Induction of HO-1 mRNA in rat astroglia by cysteamine treatment (Northern blot); type: cell-based; conditions: rat astroglia grown in standard culture media, CSH 880 μM x 6 hr
Procedure: (§1) Brain cell cultures: Rat astroglia were prepared as described in Schipper et al. (1999), herein incorporated by reference, as follows:
(§2) Pregnant Sprague-Dawley rats were obtained from Charles River Breeding Farms. Primary neural cell cultures were prepared from 1-day old neonates by mechanoenzymatic dissociation of cerebral tissue […] as previously described by Chopra et al., (1997), herein incorporated by reference. Cells were grown in Ham's F-12 and high-glucose DMEM (50:50 vol/vol) supplemented with 10 mM HEPES. 5% heat-inactivated horse serum, 5% heat-inactivated fetal bovine serum, and penicillin/streptomycin (50 U/ml and 50 μg/ml, respectively). […] The cultures were then incubated under the above-mentioned conditions for 6 days, at which time >98% of the cells composing the monolayer were astroglia, as determined by immunohistochemical labeling for the astrocyte-specific marker glial fibrillary acidic protein, as described by Chopra et al. (1995), herein incorporated by reference. […]
(§3) RNA isolation and Northern analysis: Cultured astrocytes were harvested using a rubber policeman, and cytoplasmic RNA was isolated using an acid guanidinium thiocyanate/phenol/chloroform extraction method, as described by Chomczynski and Sacchi (1987), herein incorporated by reference. […] Resulting bands on the autoradiograph were analyzed using a phosphorimager S1 densitometer. […]

HO-1 mRNA [2] = assay: HOS bioassay: effect of 24 h pre-incubation with plasma or plasma fractions on the induced HO-1 mRNA response of rat astroglia (Northern blot); type: cell-based; conditions: normal subjects taking antioxidants; vitamin E 400 U/day (N1); multiple very high-dose antioxidants (N2, N3)
Procedure: as §1, §2, §3

Question: Which “HO-1 mRNA bands after cysteamine (CSH) treatment” value (HO-1 mRNA [1]) does the source give for `NCCS` [Cysteamine] here?
Answer: The value was “induces strong HO-1 mRNA bands; also recorded: induces robust HO-1 mRNA bands”.

Question: What about the “HO-1 mRNA bands after cysteamine (CSH) treatment” value (HO-1 mRNA [1]; listed as CSH) of the same molecule?
Answer: The value was “intense HO-1 mRNA signal”.

Question: Which “astrocyte HO-1 mRNA response to CSH with plasma of normal subjects on antioxidants” value (HO-1 mRNA [2]) does the source give for vitamin E here?
Answer: The value was “does not affect”.
